Test results as given in article PMC4268911 (International Journal of Nanomedicine, 2014).

Tests used:
[1] = system: MCF-7 cells; experiment: In vitro cytotoxicity of conjugate, MTS-based assay; type: cell-based, human; settings: MCF-7, 0–200 μg mL−1 polymer, 24 hours
[2] = system: MDAMB 231 cells; experiment: as above; type: cell-based, human; settings: MDAMB 231, 0–200 μg mL−1 polymer, 24 hours

Substance: Low-molecular-weight heparin [LMWH]
- cytotoxicity (cell viability) [1]: no severe in vitro cytotoxicity
- cytotoxicity (cell viability) [2]: no severe in vitro cytotoxicity
